Source: patent publication US11702404B2, “GLP-1R modulating compounds” (priority 2019, dated 2023)

How the values were obtained:
[1] = molecular target: GLP-1R (Homo sapiens, UniProt P43220); test: GLP-1R activation: cAMP increase in CHO cells stably expressing GLP-1R; type: cell-based; conditions: cAMP increase, CHO cells stably expressing GLP-1R, 10 point dose response, 30 minutes incubation; read-out: EC50
[2] = Microsomal stability, human liver microsomes (predicted hepatic clearance); conditions: predicted from in vitro microsomal stability data

Sequence of GLP-1R (P43220 24-463): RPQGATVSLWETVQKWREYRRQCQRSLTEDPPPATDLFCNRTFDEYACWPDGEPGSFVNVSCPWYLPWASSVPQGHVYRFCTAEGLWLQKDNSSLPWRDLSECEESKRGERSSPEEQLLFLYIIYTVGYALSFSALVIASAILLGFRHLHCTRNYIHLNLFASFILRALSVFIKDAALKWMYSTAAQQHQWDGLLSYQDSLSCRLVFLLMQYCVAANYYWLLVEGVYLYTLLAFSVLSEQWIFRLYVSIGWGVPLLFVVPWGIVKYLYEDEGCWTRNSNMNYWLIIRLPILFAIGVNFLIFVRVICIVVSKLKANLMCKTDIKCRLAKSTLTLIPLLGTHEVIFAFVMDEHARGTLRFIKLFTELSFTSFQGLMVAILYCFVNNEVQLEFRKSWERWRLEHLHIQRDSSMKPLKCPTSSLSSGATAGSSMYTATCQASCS

SMILES | EC50 [1] [nM] | Predicted Hepatic Clearance (Pred. Cl.) [2] [mL/min/kg]
N#CCC1(Cn2c(Cc3ccc(-c4ccc(F)c(OCc5ccc(C#N)cc5F)n4)cc3F)nc3ccc(C(=O)O)cc32)CC1 [Example 162, 2-(4-(6-((4-cyano-2-fluorobenzyl)oxy)-5-fluoropyridin-2-yl)-2-fluorobenzyl)-1-((1-(cyanomethyl)cyclopropyl)methyl)-1H-benzo[d]imidazole-6-carboxylic acid] | 0.17 | <1.83
COCCn1c(Cc2ccc(-c3cccc(OCc4cccc5c4OCCO5)n3)cc2F)nc2ccc(C(=O)O)cc21 [Example 348, 2-(4-(6-((2,3-dihydrobenzo[b][1,4]dioxin-5-yl)methoxy)pyridin-2-yl)-2-fluorobenzyl)-1-(2-methoxyethyl)-1H-benzo[d]imidazole-6-carboxylic acid] | 48.1 | 9.5
COCCCn1c(Cc2ccc(-c3cccc(OCc4ccc(C#N)cc4F)n3)cc2F)nc2ccc(C(=O)O)cc21 [Example 390, 2-(4-(6-((4-cyano-2-fluorobenzyl)oxy)pyridin-2-yl)-2-fluorobenzyl)-1-(3-methoxypropyl)-1H-benzo[d]imidazole-6-carboxylic acid] | 26.4 | 7.5
COCCn1c(Cc2ccc(-c3ccc(Cl)c(OCc4ccc(C#N)cc4F)n3)cc2F)nc2ccc(C(=O)O)cc21 [Example 122, 2-(4-(5-chloro-6-((4-cyano-2-fluorobenzyl)oxy)pyridin-2-yl)-2-fluorobenzyl)-1-(2-methoxyethyl)-1H-benzo[d]imidazole-6-carboxylic acid] | 30.6 | <1.83
COc1cc(Cl)ccc1COc1cccc(-c2cc(F)c(Cc3nc4ccc(C(=O)O)cc4n3CC3(CF)CC3)cc2F)n1 [Example 445, 2-(4-(6-((4-chloro-2-methoxybenzyl)oxy)pyridin-2-yl)-2,5-difluorobenzyl)-1-((1-(fluoromethyl)cyclopropyl)methyl)-1H-benzo[d]imidazole-6-carboxylic acid] | 0.5 | 9.67
COCCn1c(Cc2ccc(-c3cccc(OCc4ccc(C#N)cc4F)n3)cc2-c2cccc(OC)c2)nc2ccc(C(=O)O)cc21 [Example 188, 2-((5-(6-((4-cyano-2-fluorobenzyl)oxy)pyridin-2-yl)-3′-methoxy-[1,1′-biphenyl]-2-yl)methyl)-1-(2-methoxyethyl)-1H-benzo[d]imidazole-6-carboxylic acid] | 36.9 | 17.5
COC(Cn1c(Cc2ccc(-c3cccc(OCc4ccc(C#N)cc4F)n3)cc2F)nc2ccc(C(=O)O)cc21)C(=O)O (single isomer, unassigned) [Example 332, 1-(2-carboxy-2-methoxyethyl)-2-(4-(6-((4-cyano-2-fluorobenzyl)oxy)pyridin-2-yl)-2-fluorobenzyl)-1H-benzo[d]imidazole-6-carboxylic acid] | 120 | <1.83
COCCn1c(Cc2ccc(-c3cccc(OCc4ccc(C#N)cc4F)n3)cc2-c2cccc([N+](=O)[O-])c2)nc2ccc(C(=O)O)cc21 [Example 187, 2-((5-(6-((4-cyano-2-fluorobenzyl)oxy)pyridin-2-yl)-3′-nitro-[1,1′-biphenyl]-2-yl)methyl)-1-(2-methoxyethyl)-1H-benzo[d]imidazole-6-carboxylic acid] | 723 | 14.8
COCCn1c(Cc2cc(F)c(-c3ccc(F)c(NCc4ccc(C#N)cc4F)n3)cc2F)nc2ccc(C(=O)O)cc21 [Example 164, 2-(4-(6-((4-cyano-2-fluorobenzyl)amino)-5-fluoropyridin-2-yl)-2,5-difluorobenzyl)-1-(2-methoxyethyl)-1H-benzo[d]imidazole-6-carboxylic acid] | 32.9 | 6.7
N#Cc1ccc(COc2cccc(-c3cc(F)c(Cc4nc5ccc(C(=O)O)cc5n4CC4(C(F)F)COC4)cc3F)n2)c(F)c1 [Example 308, 2-(4-(6-((4-cyano-2-fluorobenzyl)oxy)pyridin-2-yl)-2,5-difluorobenzyl)-1-((3-(difluoromethyl)oxetan-3-yl)methyl)-1H-benzo[d]imidazole-6-carboxylic acid] | 1.26 | 5.83
COc1cc(Cl)ccc1COc1nccc(-c2ccc(Cc3nc4ccc(C(=O)O)nc4n3CC3(CF)CC3)cc2F)n1 [Example 233, 2-(4-(2-((4-chloro-2-methoxybenzyl)oxy)pyrimidin-4-yl)-3-fluorobenzyl)-3-((1-(fluoromethyl)cyclopropyl)methyl)-3H-imidazo[4,5-b]pyridine-5-carboxylic acid] | 1.35 | 10.3
N#Cc1ccc(COc2cccc(-c3ccc(Cc4nc5ccc(C(=O)O)cc5n4C4CCC4)c(F)c3)n2)c(F)c1 [Example 223, 2-(4-(6-((4-cyano-2-fluorobenzyl)oxy)pyridin-2-yl)-2-fluorobenzyl)-1-cyclobutyl-1H-benzo[d]imidazole-6-carboxylic acid] | 16.4 | 3.5
COCCn1c(Cc2ccc(-c3cccc(OCc4ccc(C#N)cc4F)n3)c(C(F)(F)F)c2)nc2ccc(C(=O)O)cc21 [Example 34, 2-(4-(6-((4-cyano-2-fluorobenzyl)oxy)pyridin-2-yl)-3-(trifluoromethyl)benzyl)-1-(2-methoxyethyl)-1H-benzo[d]imidazole-carboxylic acid] | 2180 | 9.83
COCCn1c(Cc2ccc(-c3cccc(OCn4ccc(C#N)cc4=O)n3)cc2F)nc2ccc(C(=O)O)cc21 [Example 513, 2-(4-(6-((4-cyano-2-oxopyridin-1(2H)-yl)methoxy)pyridin-2-yl)-2-fluorobenzyl)-1-(2-methoxyethyl)-1H-benzo[d]imidazole-6-carboxylic acid] | 55.1 | 5.17
COC[C@H](C)n1c(Cc2cc(F)c(-c3cccc(OCc4ccc(C#N)cc4F)n3)cc2F)nc2ccc(C(=O)O)cc21 [Example 559, (S)-2-(4-(6-((4-cyano-2-fluorobenzyl)oxy)pyridin-2-yl)-2,5-difluorobenzyl)-1-(1-methoxypropan-2-yl)-1H-benzo[d]imidazole-6-carboxylic acid] | 2.62 | 6.83
Cc1conc1Cn1c(Cc2ccc(-c3cccc(OCc4ccc(C#N)cc4F)n3)cc2F)nc2ccc(C(=O)O)cc21 [Example 490, 2-(4-(6-((4-cyano-2-fluorobenzyl)oxy)pyridin-2-yl)-2-fluorobenzyl)-1-((4-methylisoxazol-3-yl)methyl)-1H-benzo[d]imidazole-6-carboxylic acid] | 5.53 | 3.67

The remaining lines, values ahead:

EC50 [1] [nM] | Predicted Hepatic Clearance (Pred. Cl.) [2] [mL/min/kg] | SMILES
107 | 1.83 | COCCn1c(Cc2ccc(-c3cccc(OCc4ccc(C#N)cc4F)n3)c3c2COC3)nc2ccc(C(=O)O)cc21 [Example 903, 2-((7-(6-((4-cyano-2-fluorobenzyl)oxy)pyridin-2-yl)-1,3-dihydroisobenzofuran-4-yl)methyl)-1-(2-methoxyethyl)-1H-benzo[d]imidazole-6-carboxylic acid]
0.13 | 3 | N#Cc1cc(F)c(COc2nc(-c3cc(F)c(Cc4nc5c(F)cc(C(=O)O)cc5n4C[C@@H]4CCO4)cc3F)ccc2F)cc1F [Example 766]
0.18 | 1.83 | O=C(O)c1ccc2nc(Cc3ccc(-c4cccc(OCc5ccc(C(F)F)cc5F)n4)cc3F)n(C[C@@H]3CCO3)c2c1 [Example 829]
10.4 | 17 | N#Cc1ccc(COc2cccc(-c3cc(F)c(Cc4nc5ccc(C(=O)O)cc5n4Cc4cnns4)cc3F)n2)c(F)c1 [Example 569, 1-((1,2,3-thiadiazol-5-yl)methyl)-2-(4-(6-((4-cyano-2-fluorobenzyl)oxy)pyridin-2-yl)-2,5-difluorobenzyl)-1H-benzo[d]imidazole-6-carboxylic acid]
2.98 | 1.83 | COCCn1c(Cc2cc(F)c(-c3cccc(OCc4ccc(Cl)nc4)n3)cc2F)nc2ccc(C(=O)O)cc21 [Example 813]
2.48 | 6.67 | COCC1(Cn2c(Cc3cc(F)c(-c4cccc(OCc5ccc(C#N)cc5F)n4)cc3F)nc3ccc(C(=O)O)cc32)CCC1 [Example 743]
9.09 | 1.83 | COCCn1c(Cc2cc(F)c(-c3cccc(OCc4ccc(C(N)=O)nc4)n3)cc2F)nc2c(F)cc(C(=O)O)cc21 [Example 825]
4.3 | 6 | COCCn1c(Cc2cc(F)c(-c3cccc(OCc4ccc(F)cc4Cl)n3)cc2F)nc2ccc(C(=O)O)cc21 [Example 818]
1.94 | 5.83 | N#Cc1ccc(COc2cccc(-c3cc(F)c(Cc4nc5ccc(C(=O)O)cc5n4Cc4ccsn4)cc3F)n2)c(F)c1 [Example 580, 2-(4-(6-((4-cyano-2-fluorobenzyl)oxy)pyridin-2-yl)-2,5-difluorobenzyl)-1-(isothiazol-3-ylmethyl)-1H-benzo[d]imidazole-6-carboxylic acid]
1.11 | 4.83 | N#Cc1ccc(COc2cccc(-c3cc(F)c(Cc4nc5ccc(C(=O)O)cc5n4C[C@@H]4CCCO4)cc3F)n2)c(F)c1 [Example 840]
0.29 | 4.83 | N#Cc1ccc(COc2cccc(-c3cc(F)c(Cc4nc5ccc(C(=O)O)cc5n4[C@H]4COC[C@H]4F)cc3F)n2)c(F)c1 [Example 611]
0.29 | 8.83 | N#Cc1ccc(COc2ncc(F)c(-c3ccc(Cc4nc5c(F)cc(C(=O)O)cc5n4C[C@@H]4CCO4)cc3F)n2)c(F)c1 [Example 881]
17 | 2.67 | N#Cc1ccc(COc2cccc(-c3cc(F)c(Cc4nc5ccc(C(=O)O)cc5n4CC4CC5(COC5)C4)cc3F)n2)c(F)c1 [Example 653]
